In the NIST ThermoML archive (doi:10.1016/j.fluid.2014.07.039):
± gives the expanded uncertainty stated by the source.

How the values were obtained:
[1] = 344.15 K; for mass density: Vibrating tube method; for surface tension liquid-gas: Pendant drop shape
[2] = 344.15 K, Liquid, pendant drop shape

SMILES | mass density ([1]; 101.33 kPa, Gas) [kg/m3] | mass density ([1]; 101.3 kPa, Liquid) [kg/m3] | surface tension liquid-gas ([1]; Liquid) [mN/m] | interfacial tension ([2]; 100 kPa) [mN/m] | interfacial tension ([2]; 1000 kPa) [mN/m] | interfacial tension ([2]; 2000 kPa) [mN/m] | interfacial tension ([2]; 3000 kPa) [mN/m] | interfacial tension ([2]; 4000 kPa) [mN/m] | interfacial tension ([2]; 5000 kPa) [mN/m] | interfacial tension ([2]; 6000 kPa) [mN/m] | interfacial tension ([2]; 7000 kPa) [mN/m] | interfacial tension ([2]; 8000 kPa) [mN/m] | interfacial tension ([2]; 9000 kPa) [mN/m] | interfacial tension ([2]; 10000 kPa) [mN/m] | interfacial tension ([2]; 11000 kPa) [mN/m] | interfacial tension ([2]; 12000 kPa) [mN/m] | interfacial tension ([2]; 13000 kPa) [mN/m] | interfacial tension ([2]; 14000 kPa) [mN/m]
O=C=O [carbon dioxide] | 1.563 ± 0.032 |  |  |  |  |  |  |  |  |  |  |  |  |  |  |  |  | 
CCCCCCCCCCCC [dodecane] |  | 712.1 ± 0.22 | 20.72 ± 0.24 |  |  |  |  |  |  |  |  |  |  |  |  |  |  | 
CCCCCCCCCCCC [dodecane] + O=C=O |  |  |  | 20.72 ± 0.02 | 18.54 ± 0.02 | 16.53 ± 0.02 | 14.74 ± 0.02 | 13.03 ± 0.02 | 11.31 ± 0.02 | 9.57 ± 0.02 | 7.82 ± 0.02 | 6.12 ± 0.02 | 4.57 ± 0.02 | 3.24 ± 0.02 | 2.26 ± 0.02 |  |  | 
CCCCCCCCCCCCCC [tetradecane] |  | 727.1 ± 0.22 | 22.07 ± 0.25 |  |  |  |  |  |  |  |  |  |  |  |  |  |  | 

Second part, the compound after the results:

mass density ([1]; 101.33 kPa, Gas) [kg/m3] | mass density ([1]; 101.3 kPa, Liquid) [kg/m3] | surface tension liquid-gas ([1]; Liquid) [mN/m] | interfacial tension ([2]; 100 kPa) [mN/m] | interfacial tension ([2]; 1000 kPa) [mN/m] | interfacial tension ([2]; 2000 kPa) [mN/m] | interfacial tension ([2]; 3000 kPa) [mN/m] | interfacial tension ([2]; 4000 kPa) [mN/m] | interfacial tension ([2]; 5000 kPa) [mN/m] | interfacial tension ([2]; 6000 kPa) [mN/m] | interfacial tension ([2]; 7000 kPa) [mN/m] | interfacial tension ([2]; 8000 kPa) [mN/m] | interfacial tension ([2]; 9000 kPa) [mN/m] | interfacial tension ([2]; 10000 kPa) [mN/m] | interfacial tension ([2]; 11000 kPa) [mN/m] | interfacial tension ([2]; 12000 kPa) [mN/m] | interfacial tension ([2]; 13000 kPa) [mN/m] | interfacial tension ([2]; 14000 kPa) [mN/m] | SMILES
 |  |  | 22.07 ± 0.02 | 20.41 ± 0.02 | 18.55 ± 0.02 | 16.7 ± 0.02 | 14.87 ± 0.02 | 13.06 ± 0.02 | 11.31 ± 0.02 | 9.61 ± 0.02 | 8 ± 0.02 | 6.48 ± 0.02 | 5.07 ± 0.02 | 3.78 ± 0.02 | 2.63 ± 0.02 | 1.64 ± 0.02 | 0.82 ± 0.02 | CCCCCCCCCCCCCC [tetradecane] + O=C=O
 | 720.2 ± 0.22 | 21.56 ± 0.24 |  |  |  |  |  |  |  |  |  |  |  |  |  |  |  | CCCCCCCCCCCCC [tridecane]
 |  |  | 21.56 ± 0.02 | 19.68 ± 0.02 | 17.65 ± 0.02 | 15.67 ± 0.02 | 13.77 ± 0.02 | 11.94 ± 0.02 | 10.18 ± 0.02 | 8.52 ± 0.02 | 6.95 ± 0.02 | 5.49 ± 0.02 | 4.13 ± 0.02 | 2.89 ± 0.02 | 1.77 ± 0.02 | 0.78 ± 0.02 |  | CCCCCCCCCCCCC [tridecane] + O=C=O
